Data: patent publication US20150105252A1, “SUBSTITUTED PYRAZOLES AS HERBICIDES” (E I DU PONT DE NEMOURS AND COMPANY, priority 2013, published 2015)

Legend:
Assay in all cases: Test C postemergence
lambsquarters = type: in vivo, Chenopodium album
Description: (§1) Seeds of plant species selected from blackgrass (Alopecurus myosuroides), ryegrass, Italian (Italian ryegrass, Lolium multiflorum), wheat (winter wheat, Triticum aestivum), galium (catchweed bedstraw, Galium aparine), corn (Zea mays), crabgrass, large (large crabgrass, Digitaria sanguinalis), foxtail, giant (giant foxtail, Setaria faberii), johnsongrass (Sorghum halepense), lambsquarters (Chenopodium album), morningglory (Ipomoea coccinea), nutsedge, yellow (yellow nutsedge, Cyperus esculentus), pigweed (redroot pigweed, Amaranthus retroflexus), ragweed (common ragweed, Ambrosia elation), soybean (Glycine max), barnyardgrass (Echinochloa crus-galli), oilseed rape (Brassica napus), waterhemp (common waterhemp, Amaranthus rudis), oat, wild (wild oat, Avena fatua), kochia (Kochia scoparia), Surinam grass (Brachiaria decumbens), foxtail, green (green foxtail, Setaria viridis), goosegrass (Eleusine indica), bromegrass, downy (downy bromegrass, Bromus tectorum), nightshade (eastern black nightshade, Solanum ptycanthum), cocklebur (common cocklebur, Xanthium strumarium), cupgrass, woolly (woolly cupgrass, Eriochloa villosa), bermudagrass (Cynodon dactylon), sunflower, (common oilseed sunflower, Helianthus annuus), Russian thistle (Salsola kali), and velvetleaf (Abutilon theophrasti) were planted into a blend of loam soil and sand and treated preemergence with test chemicals formulated in a non-phytotoxic solvent mixture which included a surfactant.
(§2) At the same time, plants selected from these crop and weed species and also chickweed (common chickweed, Stellaria media), canarygrass (littleseed canarygrass, Phalaris minor), and deadnettle (henbit deadnettle, Lamium amplexicaule), were planted in pots containing Redi-Earth® planting medium (Scotts Company, 14111 Scottslawn Road, Marysville, Ohio 43041) comprising spaghnum peat moss, vermiculite, wetting agent and starter nutrients and treated with postemergence applications of test chemicals formulated in the same manner. Plants ranged in height from 2 to 18 cm (1- to 4-leaf stage) for postemergence treatments. Treated plants and controls were maintained in a greenhouse for 13 to 15 days, after which time all species were compared to controls and visually evaluated. Plant response ratings, summarized in Table C, are based on a scale of 0 to 100 where 0 is no effect and 100 is complete control. A dash (-) response means no test result.

wheat = type: in vivo, Triticum aestivum
Description: as §1, §2

nutsedge, yellow = type: in vivo, Cyperus esculentus
Description: as §1, §2

corn = type: in vivo, Zea mays
Description: as §1, §2

ryegrass, Italian = type: in vivo, Lolium multiflorum
Description: as §1, §2

ragweed = type: in vivo, Ambrosia elation
Description: as §1, §2

soybean = type: in vivo, Glycine max
Description: as §1, §2

pigweed = type: in vivo, Amaranthus retroflexus
Description: as §1, §2

kochia = type: in vivo, Kochia scoparia
Description: as §1, §2

oilseed rape = type: in vivo, Brassica napus
Description: as §1, §2

waterhemp = type: in vivo, Amaranthus rudis
Description: as §1, §2

foxtail, giant = type: in vivo, Setaria faberii
Description: as §1, §2

barnyardgrass = type: in vivo, Echinochloa crus-galli
Description: as §1, §2

oat, wild = type: in vivo, Avena fatua
Description: as §1, §2

galium = type: in vivo, Galium aparine; conditions: for Plant response rating, Galium: postemergence
Description: as §1, §2

[1] = Postemergence, 31 g ai/ha, visually evaluated after 13 to 15 days
[2] = postemergence, 62 g ai/ha, scale 0 to 100
[3] = postemergence, 250 g ai/ha, scale 0 to 100 (0 no effect, 100 complete control)
[4] = postemergence, 125 g ai/ha, scale 0 to 100, 0 no effect, 100 complete control

## CCc1cc(C(=O)NCC(F)(F)F)nn1Cc1ccnc(C(F)(F)F)c1 [Compound 78, 5-ethyl-N-(2,2,2-trifluoroethyl)-1-[[(2-trifluoromethyl)-4-pyridinyl]methyl]-1H-pyrazole-3-carboxamide]
lambsquarters; [1]
  Plant response rating (scale of 0 to 100 where 0 is no effect and 100 is complete control), Lambsquarters: 60
lambsquarters; [2]
  Lambsquarters plant response rating: 75
lambsquarters; [3]
  Plant response rating, Lambsquarters: 98
lambsquarters; [4]
  Plant response rating, Lambsquarters: 95
wheat; [1]
  Plant response rating (scale of 0 to 100 where 0 is no effect and 100 is complete control), Wheat: 5
wheat; [2]
  Wheat plant response rating: 10
wheat; [3]
  Plant response rating, Wheat: 35
wheat; [4]
  Plant response rating, Wheat: 10
nutsedge, yellow; [1]
  Plant response rating (scale of 0 to 100 where 0 is no effect and 100 is complete control), Nutsedge, Yellow: 5
nutsedge, yellow; [2]
  Nutsedge, Yellow plant response rating: 5
nutsedge, yellow; [3]
  Plant response rating, Nutsedge, Yellow: 15
nutsedge, yellow; [4]
  Plant response rating, Nutsedge, Yellow: 10
corn; [1]
  Plant response rating (scale of 0 to 100 where 0 is no effect and 100 is complete control), Corn: 10
corn; [2]
  Corn plant response rating: 15
corn; [3]
  Plant response rating, Corn: 80
corn; [4]
  Plant response rating, Corn: 25
ryegrass, Italian; [1]
  Plant response rating (scale of 0 to 100 where 0 is no effect and 100 is complete control), Ryegrass, Italian: 5
ryegrass, Italian; [2]
  Ryegrass, Italian plant response rating: 5
ryegrass, Italian; [3]
  Plant response rating, Ryegrass, Italian: 35
ryegrass, Italian; [4]
  Plant response rating, Ryegrass, Italian: 5
ragweed; [1]
  Plant response rating (scale of 0 to 100 where 0 is no effect and 100 is complete control), Ragweed: 35
ragweed; [2]
  Ragweed plant response rating: 75
ragweed; [3]
  Plant response rating, Ragweed: 95
ragweed; [4]
  Plant response rating, Ragweed: 85
soybean; [1]
  Plant response rating (scale of 0 to 100 where 0 is no effect and 100 is complete control), Soybean: 50
soybean; [2]
  Soybean plant response rating: 80
soybean; [3]
  Plant response rating, Soybean: 85
soybean; [4]
  Plant response rating, Soybean: 80
pigweed; [1]
  Plant response rating (scale of 0 to 100 where 0 is no effect and 100 is complete control), Pigweed: 40
pigweed; [2]
  Pigweed plant response rating: 75
pigweed; [3]
  Plant response rating, Pigweed: 98
pigweed; [4]
  Plant response rating, Pigweed: 90
kochia; [1]
  Plant response rating (scale of 0 to 100 where 0 is no effect and 100 is complete control), Kochia: 85
kochia; [2]
  Kochia plant response rating: 90
kochia; [3]
  Plant response rating, Kochia: 90
kochia; [4]
  Plant response rating, Kochia: 90
Oilseed rape; [1]
  Plant response rating (scale of 0 to 100 where 0 is no effect and 100 is complete control), Oilseed Rape: 45
Oilseed rape; [2]
  Oilseed Rape plant response rating: 45
Oilseed rape; [3]
  Plant response rating, Oilseed Rape: 55
Oilseed rape; [4]
  Plant response rating, Oilseed Rape: 50
waterhemp; [1]
  Plant response rating (scale of 0 to 100 where 0 is no effect and 100 is complete control), Waterhemp: 50
waterhemp; [2]
  Waterhemp plant response rating: 70
waterhemp; [3]
  Plant response rating, Waterhemp: 95
waterhemp; [4]
  Plant response rating, Waterhemp: 80
foxtail, giant; [1]
  Plant response rating (scale of 0 to 100 where 0 is no effect and 100 is complete control), Foxtail, Giant: 15
foxtail, giant; [2]
  Foxtail, Giant plant response rating: 20
foxtail, giant; [3]
  Plant response rating, Foxtail, Giant: 95
foxtail, giant; [4]
  Plant response rating, Foxtail, Giant: 50
barnyardgrass; [1]
  Plant response rating (scale of 0 to 100 where 0 is no effect and 100 is complete control), Barnyardgrass: 5
barnyardgrass; [2]
  Barnyardgrass plant response rating: 15
barnyardgrass; [3]
  Plant response rating, Barnyardgrass: 80
barnyardgrass; [4]
  Plant response rating, Barnyardgrass: 15
oat, wild; [1]
  Plant response rating (scale of 0 to 100 where 0 is no effect and 100 is complete control), Oat, Wild: 5
oat, wild; [2]
  Oat, Wild plant response rating: 5
oat, wild; [3]
  Plant response rating, Oat, Wild: 30
oat, wild; [4]
  Plant response rating, Oat, Wild: 10
galium; [1]
  Plant response rating (scale of 0 to 100 where 0 is no effect and 100 is complete control), Galium: 80
galium; 250 g ai/ha, scale 0 to 100 (0 no effect, 100 complete control)
  Plant response rating, Galium: 80
galium; 125 g ai/ha, scale 0 to 100, 0 no effect, 100 complete control
  Plant response rating, Galium: 80
